Results published in PubChem BioAssay AID743028 (The Scripps Research Institute Molecular Screening Center, 2013).

Assay: mouse plasma pharmacokinetic parameters, late-stage follow-up, in vivo study for V1a-R antagonist project, LC-MS (AID 743028)
Details: C57Bl6 mouse plasma PK, IV/PO; for Cmax: peak plasma concentration; for AUC last: plasma exposure; for Tmax: time to peak

half-life (IV dosing 1 mg/kg): 2.22 h | MRT inf (IV dosing 1 mg/kg, mean residence time): 1.65 h | Cmax (IV dosing 1 mg/kg): 19.5 µM | clearance (IV dosing 1 mg/kg, plasma clearance): 2.9 mL/min/kg | AUC last (IV dosing 1 mg/kg): 10.5 µM·h | Tmax (IV dosing 1 mg/kg): 0.08 h | Vss (IV dosing 1 mg/kg, volume of distribution): 0.26 L/kg | half-life (PO dosing 10 mg/kg): 2.88 h | bioavailability (PO dosing 10 mg/kg, oral bioavailability): 6.54% | Cmax (PO dosing 10 mg/kg): 3.08 µM | apparent oral clearance (CL/F) (PO dosing 10 mg/kg, plasma clearance): 35.1 mL/min/kg | AUC last (PO dosing 10 mg/kg): 10.5 µM·h | Tmax (PO dosing 10 mg/kg): 0.667 h
SMILES: O=C(C1CCN(c2ccc(Cl)cn2)CC1)N(CC1CC1)c1ccc(Cl)cc1
